Experimental data as given in PubChem BioAssay (NCI).
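Step 1: Grow cells in 96-well plates. Step 2: Expose to compound for 48 hours at 5 concentrations. Step 3: Interpolate endpoints linearly; if unreached, use highest concentration. GI50 = concentration required for 50% inhibition of growth. TGI is the concentration that stops growth completely.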

Key:
Assay in all cases: DTP human tumour cell line panel, 48 h
[1] = test system: DU-145 prostate
[2] = test system: U251 CNS
[3] = test system: OVCAR-8 ovarian
[4] = test system: NCI-H460 lung
[5] = test system: SK-MEL-28 melanoma
[6] = test system: OVCAR-4 ovarian
[7] = test system: T-47D breast
[8] = test system: MCF7 breast
[9] = test system: HS 578T breast
[10] = test system: LOX IMVI melanoma
[11] = test system: RXF 393 renal
[12] = test system: CAKI-1 renal
[13] = test system: A498 renal
[14] = test system: BT-549 breast
[15] = test system: HCT-15 colon
[16] = test system: RPMI-8226 leukemia
[17] = test system: UO-31 renal
[18] = test system: SF-295 CNS
[19] = test system: SN12C renal
[20] = test system: SK-MEL-2 melanoma
[21] = test system: NCI/ADR-RES ovarian
[22] = test system: SK-OV-3 ovarian
[23] = test system: ACHN renal
[24] = test system: PC-3 prostate
[25] = test system: HOP-62 NSCLC
[26] = test system: OVCAR-3 ovarian
[27] = test system: KM12 colon
[28] = test system: OVCAR-5 ovarian
[29] = test system: SNB-19 CNS
[30] = test system: HCC-2998 colon
[31] = test system: MOLT-4 leukemia
[32] = test system: IGROV1 ovarian
[33] = test system: SF-268 CNS
[34] = test system: HT29 colon
[35] = test system: NCI-H226 lung
[36] = test system: UACC-62 melanoma
[37] = test system: K-562 leukemia
[38] = test system: 786-0 renal
[39] = test system: SK-MEL-5 melanoma
[40] = test system: NCI-H522 lung
[41] = test system: A549 NSCLC
[42] = test system: MDA-MB-231 breast
[43] = test system: HCT-116 colon
[44] = test system: SW-620 colon
[45] = test system: M14 melanoma
[46] = test system: HL-60(TB) leukemia
[47] = test system: SR leukemia
[48] = test system: UACC-257 melanoma
[49] = test system: COLO 205 colon
[50] = test system: SF-539 CNS
[51] = test system: SNB-75 CNS
[52] = test system: TK-10 renal
[53] = test system: CCRF-CEM leukemia
[54] = test system: NCI-H23 lung
[55] = test system: MALME-3M melanoma
[56] = test system: MDA-MB-435
[57] = test system: HOP-92 NSCLC

## Cn1cc(C2=C(c3c(S(C)=O)n(C)c4ccccc34)C(=O)NC2=O)c2ccccc21 (stereo not given)
[1]
  GI50: 8.9 µM
  TGI: > 25 µM
[2]
  GI50: 8.64 µM
  TGI: > 25 µM
[3]
  GI50: 12.3 µM
  TGI: > 25 µM
[4]
  GI50: 5.83 µM
  TGI: > 25 µM
[5]
  GI50: 19.1 µM
  TGI: > 25 µM
[6]
  GI50: 16.1 µM
  TGI: > 25 µM
[7]
  GI50: 8.35 µM
  TGI: > 25 µM
[8]
  GI50: 6.33 µM
  TGI: > 25 µM
[9]
  GI50: 5.57 µM
  TGI: 24.9 µM
[10]
  GI50: 13.7 µM
  TGI: > 25 µM
[11]
  GI50: 5.42 µM
  TGI: > 20.7 µM
[12]
  GI50: 6.04 µM
  TGI: > 25 µM
[13]
  GI50: 4.03 µM
  TGI: > 20.5 µM
[14]
  GI50: 4.88 µM
  TGI: > 25 µM
[15]
  GI50: 7.38 µM
  TGI: > 25 µM
[16]
  GI50: 12.7 µM
  TGI: > 25 µM
[17]
  GI50: 3.89 µM
  TGI: > 25 µM
[18]
  GI50: 5.93 µM
  TGI: > 17.2 µM
[19]
  GI50: 14 µM
  TGI: > 25 µM
[20]
  GI50: 7.88 µM
  TGI: > 25 µM
[21]
  GI50: 9.19 µM
  TGI: > 25 µM
[22]
  GI50: 7.87 µM
  TGI: > 25 µM
[23]
  GI50: 8.83 µM
  TGI: > 25 µM
[24]
  GI50: 8.19 µM
  TGI: > 25 µM
[25]
  GI50: 8.34 µM
  TGI: > 25 µM
[26]
  GI50: 6.31 µM
  TGI: 17.5 µM
[27]
  GI50: 7.9 µM
  TGI: > 25 µM
[28]
  GI50: > 25 µM
  TGI: > 25 µM
[29]
  GI50: 25 µM
  TGI: > 25 µM
[30]
  GI50: 18.9 µM
  TGI: > 25 µM
[31]
  GI50: 9.4 µM
  TGI: > 25 µM
[32]
  GI50: 10.8 µM
  TGI: > 25 µM
[33]
  GI50: 11.7 µM
  TGI: > 25 µM
[34]
  GI50: 7.51 µM
  TGI: > 25 µM
[35]
  GI50: 8.04 µM
  TGI: > 25 µM
[36]
  GI50: 14.2 µM
  TGI: > 25 µM
[37]
  GI50: 8.89 µM
  TGI: > 25 µM
[38]
  GI50: > 19.9 µM
  TGI: > 25 µM
[39]
  GI50: 6.96 µM
  TGI: > 25 µM
[40]
  GI50: 4.47 µM
  TGI: > 23.4 µM
[41]
  GI50: 9.24 µM
  TGI: > 25 µM
[42]
  GI50: 12.9 µM
  TGI: > 25 µM
[43]
  GI50: 8.57 µM
  TGI: > 25 µM
[44]
  GI50: 7.78 µM
  TGI: > 25 µM
[45]
  GI50: 7.56 µM
  TGI: > 25 µM
[46]
  GI50: 5.39 µM
  TGI: 17.7 µM
[47]
  GI50: 2.55 µM
  TGI: 24.3 µM
[48]
  GI50: > 25 µM
  TGI: > 25 µM
[49]
  GI50: 5.96 µM
  TGI: > 18.6 µM
[50]
  GI50: 6.35 µM
  TGI: > 20.1 µM
[51]
  GI50: 5.8 µM
  TGI: 22.3 µM
[52]
  GI50: 6.26 µM
  TGI: > 25 µM
[53]
  GI50: 7.19 µM
  TGI: > 25 µM
[54]
  GI50: 9.79 µM
  TGI: > 25 µM
[55]
  GI50: > 25 µM
  TGI: > 25 µM
[56]
  GI50: 2.68 µM
  TGI: 9.14 µM

## COc1ccc(/C=C2/CN(CCC#N)C/C(=C\c3ccc(OC)cc3)C2=O)cc1
[1]
  GI50: 4.25 µM
  TGI: > 100 µM
[2]
  GI50: 2.1 µM
  TGI: 5.1 µM
[3]
  GI50: 3.05 µM
  TGI: > 100 µM
[4]
  GI50: 1.97 µM
  TGI: 4.75 µM
[5]
  GI50: 1.99 µM
  TGI: 4.3 µM
[6]
  GI50: 4.42 µM
  TGI: > 100 µM
[7]
  GI50: 3.76 µM
  TGI: > 100 µM
[8]
  GI50: 1.72 µM
  TGI: > 100 µM
[9]
  GI50: 2.98 µM
  TGI: 64.4 µM
[10]
  GI50: 1.7 µM
  TGI: 4.03 µM
[11]
  GI50: 1.7 µM
  TGI: 3.29 µM
[12]
  GI50: 2.82 µM
  TGI: > 100 µM
[13]
  GI50: 5.03 µM
  TGI: 21.5 µM
[14]
  GI50: 2.1 µM
  TGI: 4.73 µM
[15]
  GI50: 2.51 µM
  TGI: 21.8 µM
[16]
  GI50: 0.401 µM
  TGI: 9.02 µM
[17]
  GI50: 1.74 µM
  TGI: 4.86 µM
[57]
  GI50: 1.85 µM
  TGI: 20.8 µM
[19]
  GI50: 2.18 µM
  TGI: 6.31 µM
[20]
  GI50: 2.72 µM
  TGI: 7.15 µM
[21]
  GI50: 3.73 µM
  TGI: > 100 µM
[22]
  GI50: 5.24 µM
  TGI: 51.8 µM
[23]
  GI50: 2.06 µM
  TGI: 4.48 µM
[24]
  GI50: 2.67 µM
  TGI: > 100 µM
[25]
  GI50: 2.17 µM
  TGI: 4.79 µM
[26]
  GI50: 2.79 µM
  TGI: 7.46 µM
[27]
  GI50: 1.72 µM
  TGI: 3.83 µM
[28]
  GI50: 3.33 µM
  TGI: 24.9 µM
[29]
  GI50: 4.07 µM
  TGI: > 100 µM
[30]
  GI50: 1.9 µM
  TGI: 3.47 µM
[31]
  GI50: 3.69 µM
  TGI: > 100 µM
[32]
  GI50: 2.77 µM
  TGI: 8.26 µM
[33]
  GI50: 3.27 µM
  TGI: 36.7 µM
[34]
  GI50: 1.9 µM
  TGI: 3.9 µM
[35]
  GI50: 21.3 µM
  TGI: > 100 µM
[36]
  GI50: 1.66 µM
  TGI: 3.81 µM
[37]
  GI50: 3.28 µM
  TGI: > 100 µM
[38]
  GI50: 1.99 µM
  TGI: 4.33 µM
[39]
  GI50: 1.39 µM
  TGI: 2.74 µM
[40]
  GI50: 1.83 µM
  TGI: 4.32 µM
[41]
  GI50: 2.92 µM
  TGI: > 100 µM
[42]
  GI50: 2.71 µM
  TGI: 15 µM
[43]
  GI50: 0.829 µM
  TGI: 2.38 µM
[44]
  GI50: 2.15 µM
  TGI: 6.72 µM
[45]
  GI50: 3.01 µM
  TGI: 9.6 µM
[47]
  GI50: 1.07 µM
  TGI: > 100 µM
[48]
  GI50: 2.63 µM
  TGI: 7.44 µM
[49]
  GI50: 1.91 µM
  TGI: 3.5 µM
[50]
  GI50: 2.12 µM
  TGI: 5.42 µM
[52]
  GI50: 3.21 µM
  TGI: 7.91 µM
[53]
  GI50: 2.46 µM
  TGI: > 100 µM
[54]
  GI50: 3.34 µM
  TGI: 19.8 µM
[55]
  GI50: 2.95 µM
  TGI: 8.58 µM
[56]
  GI50: 2.99 µM
  TGI: > 100 µM
